Read-outs that look alike come from different tables or passages of the source.
Legend:
Type in all cases: biochemical
DPP8 [1] = target: T1, DPP8 (Homo sapiens, UniProt Q6V1X1); assay: Time-dependent DPP8 inhibition kinetics (kobs, KI, kinact, kapp); settings: for kobs: n=3
T1 construct: purchased Proteros Biostructures GmbH, Germany
Protocol: (§1) To calculate the reaction rate of covalent bond formation between DPP proteins and inhibitor, kinact, KI and kapp was determined as previously described[30],[51]. Therefore, 250 µM GP-AMC was added simultaneously with a serial dilution of the inhibitor to 10 nM enzyme. Enzyme activity was measured for a maximum of 120 min at 30 °C, and fluorescence intensities were then plotted against time. Data was fitted to the following equation: Y=(vi/kobs)*(1−exp(−kobs*X)) using Graph-Pad Prism v10.2.3. The obtained pseudo-first-order rate constant was used to determine the maximum enzyme inhibition rate (kinact) and binding affinity (KI) by fitting the plot of kobs against inhibitor concentration to the following equation: Y=kinact/1+(KI/[I]) . The efficiency of covalent bond formation (kapp) was calculated by the ratio of kinact/KI. All measurements were performed in triplicates and error bars represent standard errors of the fit.

DPP4 [2] = target: T2, DPP4 (Homo sapiens, UniProt P27487); assay: biochemical
T2 construct: purchased Proteros Biostructures GmbH, Germany
T2 sequence (P27487 whole entry): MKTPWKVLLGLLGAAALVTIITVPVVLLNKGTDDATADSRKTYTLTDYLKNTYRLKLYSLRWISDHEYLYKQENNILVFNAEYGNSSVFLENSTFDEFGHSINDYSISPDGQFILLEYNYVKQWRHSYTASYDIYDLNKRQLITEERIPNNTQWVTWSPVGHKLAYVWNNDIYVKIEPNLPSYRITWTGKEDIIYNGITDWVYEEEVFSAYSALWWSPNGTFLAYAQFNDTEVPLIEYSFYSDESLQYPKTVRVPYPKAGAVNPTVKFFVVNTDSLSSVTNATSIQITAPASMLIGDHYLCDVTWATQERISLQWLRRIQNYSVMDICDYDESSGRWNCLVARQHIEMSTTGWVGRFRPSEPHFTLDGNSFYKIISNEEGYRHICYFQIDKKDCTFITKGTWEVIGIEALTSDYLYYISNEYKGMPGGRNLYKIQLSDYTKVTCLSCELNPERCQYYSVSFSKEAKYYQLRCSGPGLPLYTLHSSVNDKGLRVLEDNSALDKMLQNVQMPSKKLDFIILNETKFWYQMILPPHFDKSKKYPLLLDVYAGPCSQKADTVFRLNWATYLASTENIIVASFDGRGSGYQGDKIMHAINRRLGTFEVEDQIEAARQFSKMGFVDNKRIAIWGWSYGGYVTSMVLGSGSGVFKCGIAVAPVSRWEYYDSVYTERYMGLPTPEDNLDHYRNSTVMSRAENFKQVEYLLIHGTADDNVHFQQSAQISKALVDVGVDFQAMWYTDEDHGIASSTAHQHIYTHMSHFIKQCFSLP
Protocol: (§2) Enzyme activity of DPP4, DPP8, DPP9 (Proteros Biostructures GmbH, Germany) and PREP (Sigma Aldrich, USA) was determined by measuring the initial velocity of AMC release from the fluorogenic substrate GP-AMC (Sigma Aldrich, USA) using a Tecan Spark® 10 M multimode microplate reader (Tecan Group Ltd., Switzerland) in activity buffer (20 mM HEPES/KOH pH 7.3, 110 mM potassium acetate, 2 mM Mg acetate, 0.5 mM EGTA, 0.02% Tween 20, supplemented with 1 mM DTT) and a final volume of 20 μL for maximal 60 min at 30 °C. Prior to activity measurement, 10 nM enzyme was incubated for 45 min at 30 °C and gentle shaking with the inhibitor compounds in concentrations ranging from 0 to 100 μM. The compounds were dissolved in DMSO and diluted in activity buffer (final DMSO concentration: 1%). […] IC50 values were calculated using Graph-Pad Prism v10.2.3 using the equation: [Inhibitor] vs. response—Variable slope (four parameters). All measurements were performed in triplicates and error bars represent standard errors of the fit.

DPP8 [3] = target: T1, DPP8; assay: biochemical
Protocol: as §2

DPP4 [4] = target: T2, DPP4; settings: DPP4, n=3
Protocol: as §1, with “Therefore, 250 µM GP-AMC was added simultaneously with a serial dilution of the inhibitor to 10 nM enzyme.” left out

DPP9 [5] = target: T3, DPP9 (Homo sapiens, UniProt Q86TI2); assay: biochemical; design: purchased Proteros Biostructures GmbH, Germany
T3 sequence (Q86TI2 whole entry): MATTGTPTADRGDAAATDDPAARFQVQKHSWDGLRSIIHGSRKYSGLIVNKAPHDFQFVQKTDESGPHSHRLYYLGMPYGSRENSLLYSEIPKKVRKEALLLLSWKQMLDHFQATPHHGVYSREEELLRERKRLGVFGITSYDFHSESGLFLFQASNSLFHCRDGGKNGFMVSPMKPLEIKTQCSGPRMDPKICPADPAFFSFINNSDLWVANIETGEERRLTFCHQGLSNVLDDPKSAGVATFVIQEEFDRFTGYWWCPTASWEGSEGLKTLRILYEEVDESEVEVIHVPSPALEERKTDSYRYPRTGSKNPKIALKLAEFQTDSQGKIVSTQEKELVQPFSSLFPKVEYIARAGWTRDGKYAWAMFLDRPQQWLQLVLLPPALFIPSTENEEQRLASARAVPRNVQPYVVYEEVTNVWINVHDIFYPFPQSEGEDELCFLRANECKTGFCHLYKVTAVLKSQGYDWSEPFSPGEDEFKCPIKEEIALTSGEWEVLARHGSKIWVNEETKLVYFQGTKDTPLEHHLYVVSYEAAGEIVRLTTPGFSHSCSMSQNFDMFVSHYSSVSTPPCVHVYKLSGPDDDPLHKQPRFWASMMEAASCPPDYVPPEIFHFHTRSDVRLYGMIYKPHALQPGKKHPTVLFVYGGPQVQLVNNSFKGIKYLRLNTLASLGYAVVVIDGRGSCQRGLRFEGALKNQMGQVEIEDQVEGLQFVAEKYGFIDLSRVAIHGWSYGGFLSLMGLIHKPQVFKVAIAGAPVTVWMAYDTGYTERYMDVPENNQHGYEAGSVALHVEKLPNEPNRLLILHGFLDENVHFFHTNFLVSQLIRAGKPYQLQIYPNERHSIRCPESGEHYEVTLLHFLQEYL
Protocol: as §2

DPP9 [6] = target: T3, DPP9; assay: Time-dependent DPP9 inhibition kinetics (kobs, KI, kinact, kapp); design: purchased Proteros Biostructures GmbH, Germany; settings: DPP9, n=3
Protocol: as §1

T1 sequence (Q6V1X1 whole entry): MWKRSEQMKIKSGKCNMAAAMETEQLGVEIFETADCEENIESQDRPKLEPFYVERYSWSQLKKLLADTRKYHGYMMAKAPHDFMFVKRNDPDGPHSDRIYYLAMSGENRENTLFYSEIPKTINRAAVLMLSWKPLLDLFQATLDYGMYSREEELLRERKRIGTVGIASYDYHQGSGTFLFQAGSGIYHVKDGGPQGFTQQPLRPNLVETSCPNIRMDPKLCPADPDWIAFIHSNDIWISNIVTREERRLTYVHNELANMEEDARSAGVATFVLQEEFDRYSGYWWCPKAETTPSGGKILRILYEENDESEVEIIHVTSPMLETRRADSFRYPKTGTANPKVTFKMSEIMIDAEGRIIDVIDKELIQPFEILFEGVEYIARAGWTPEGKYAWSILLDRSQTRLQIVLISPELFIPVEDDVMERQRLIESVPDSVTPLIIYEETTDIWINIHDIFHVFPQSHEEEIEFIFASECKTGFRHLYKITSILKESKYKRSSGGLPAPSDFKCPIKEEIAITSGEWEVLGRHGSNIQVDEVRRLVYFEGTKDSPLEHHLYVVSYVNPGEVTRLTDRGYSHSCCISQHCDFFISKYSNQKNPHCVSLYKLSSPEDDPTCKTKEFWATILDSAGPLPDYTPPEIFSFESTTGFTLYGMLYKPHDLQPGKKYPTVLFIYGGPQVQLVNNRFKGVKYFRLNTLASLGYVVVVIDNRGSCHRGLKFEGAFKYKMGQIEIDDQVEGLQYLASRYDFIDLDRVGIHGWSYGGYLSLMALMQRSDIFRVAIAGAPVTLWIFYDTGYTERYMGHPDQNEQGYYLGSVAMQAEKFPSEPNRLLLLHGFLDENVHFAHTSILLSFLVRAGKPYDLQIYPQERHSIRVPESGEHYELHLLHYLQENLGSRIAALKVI

CCCCCCP(=O)(OCC)N1CCC[C@H](N)C1=O (some centres unmarked) [Compound 5]
kapp (DPP8 [1]; DPP8): 36.00 M⁻¹ s⁻¹
kinact best fit (DPP8 [1]; DPP8): 0.0004148 s⁻¹
kobs (DPP8 [1]; DPP8, c 1562.5 nM): 9.14e-05 s⁻¹
kobs (DPP8 [1]; DPP8, c 6250 nM): 0.000151 s⁻¹
kobs (DPP8 [1]; DPP8, c 25000 nM): 0.000235 s⁻¹
kobs (DPP8 [1]; DPP8, c 50000 nM): 0.00037 s⁻¹
kapp DPP8 (DPP8 [1]; ratio kinact/KI): 36 M⁻¹ s⁻¹
KI (inactivation) (DPP8 [1]; read-out: KI DPP8, irreversible inhibition, fit of kobs vs inhibitor concentration): 11.5 µM
KI (inactivation) (DPP8 [1]; read-out: KI best fit, DPP8): 11.5 µM
KI (inactivation) (DPP8 [1]; read-out: KI best fit, DPP8, fit of kobs vs inhibitor concentration): 11.5 µM
kinact (DPP8 [1]; read-out: kinact DPP8, irreversible inhibition, fit of kobs vs inhibitor concentration): 0.00042 ± 7e-05 s⁻¹
kinact (DPP8 [1]; read-out: kinact best fit, DPP8): 0.000415 s⁻¹
IC50 (DPP4 [2]; IC50 DPP4, GP-AMC 250 µM, 10 nM enzyme, 45 min pre-incubation at 30 °C): 46.7 µM
remaining activity at 1.5625 µM (DPP4 [2]; read-out: DPP4 activity [%], c 1562.5 nM, replicates): 101%
remaining activity at 3.125 µM (DPP4 [2]; read-out: DPP4 activity [%], c 3125 nM, replicates): 103%
remaining activity at 6.25 µM (DPP4 [2]; read-out: DPP4 activity [%], c 6250 nM, replicates): 105%
remaining activity at 25 µM (DPP4 [2]; read-out: DPP4 activity [%], c 25000 nM, replicates): 79.6%
remaining activity at 50 µM (DPP4 [2]; read-out: DPP4 activity [%], c 50000 nM, replicates): 44.3%
remaining activity at 100 µM (DPP4 [2]; read-out: DPP4 activity [%], c 100000 nM, replicates): 23.3%
IC50 (DPP8 [3]): 13.7 µM
remaining activity at 1.5625 µM (DPP8 [3]; read-out: DPP8 activity [%], c 1562.5 nM, replicates): 94.2%
remaining activity at 3.125 µM (DPP8 [3]; read-out: DPP8 activity [%], c 3125 nM, replicates): 84.3%
remaining activity at 6.25 µM (DPP8 [3]; read-out: DPP8 activity [%], c 6250 nM, replicates): 64.1%
remaining activity at 15.625 µM (DPP8 [3]; read-out: DPP8 activity [%], c 15625 nM, replicates): 42.1%
remaining activity at 25 µM (DPP8 [3]; read-out: DPP8 activity [%], c 25000 nM, replicates): 28.4%
remaining activity at 31.25 µM (DPP8 [3]; read-out: DPP8 activity [%], c 31250 nM, replicates): 19.4%
remaining activity at 50 µM (DPP8 [3]; read-out: DPP8 activity [%], c 50000 nM, replicates): 13.9%
remaining activity at 62.5 µM (DPP8 [3]; read-out: DPP8 activity [%], c 62500 nM, replicates): 4.38%
remaining activity at 100 µM (DPP8 [3]; read-out: DPP8 activity [%], c 100000 nM, replicates): 5.19%
kobs (DPP4 [4]; c 25000 nM): 0.001878 s⁻¹
kobs (DPP4 [4]; c 50000 nM): 0.001819 s⁻¹
kobs (DPP4 [4]; c 100000 nM): 0.001824 s⁻¹
IC50 (DPP9 [5]): 42.7 µM
remaining activity at 1.5625 µM (DPP9 [5]; read-out: DPP9 activity [%], c 1562.5 nM, replicates): 97%
remaining activity at 3.125 µM (DPP9 [5]; read-out: DPP9 activity [%], c 3125 nM, replicates): 96.9%
remaining activity at 6.25 µM (DPP9 [5]; read-out: DPP9 activity [%], c 6250 nM, replicates): 89.1%
remaining activity at 15.625 µM (DPP9 [5]; read-out: DPP9 activity [%], c 15625 nM, replicates): 77.4%
remaining activity at 25 µM (DPP9 [5]; read-out: DPP9 activity [%], c 25000 nM, replicates): 65.7%
remaining activity at 31.25 µM (DPP9 [5]; read-out: DPP9 activity [%], c 31250 nM, replicates): 60.7%
remaining activity at 50 µM (DPP9 [5]; read-out: DPP9 activity [%], c 50000 nM, replicates): 45.5%
remaining activity at 62.5 µM (DPP9 [5]; read-out: DPP9 activity [%], c 62500 nM, replicates): 38.8%
remaining activity at 100 µM (DPP9 [5]; read-out: DPP9 activity [%], c 100000 nM, replicates): 22.1%
remaining activity at 250 µM (DPP9 [5]; read-out: DPP9 activity [%], c 250000 nM, replicates): 5.77%
remaining activity at 500 µM (DPP9 [5]; read-out: DPP9 activity [%], c 500000 nM, replicates): 1.09%
kobs (DPP9 [6]; c 25000 nM): 0.000207 s⁻¹
kobs (DPP9 [6]; c 50000 nM): 0.000227 s⁻¹
kobs (DPP9 [6]; c 100000 nM): 0.000318 s⁻¹

— publication PMC11968843, “Sulphostin-inspired N-phosphonopiperidones as selective covalent DPP8 and DPP9 inhibitors” (Nature Communications, 2025)
